Numbered stars: 1 amine (or outer) side, 2 acyl side, 3 side chain; on linkers, the order of the positions; unused ones are H or OH. Bridge positions count the residues as written; N and C are the ends. Square brackets hold non-standard residues; d marks the D form. Peptide text beside a SMILES is read from it. * marks the point of attachment. hPhe(3,5-F2-4-CF3) = N[C@@H](CCc1cc(F)c(C(F)(F)F)c(F)c1)C(=O)O; hPhe(3-Cl-4-CF3) = N[C@@H](CCc1ccc(C(F)(F)F)c(Cl)c1)C(=O)O; hPhe(3-F,4-CF3) = N[C@@H](CCc1ccc(C(F)(F)F)c(F)c1)C(=O)O; NEtPhe(4-CF3) = CCN[C@@H](Cc1ccc(C(F)(F)F)cc1)C(=O)O; X8 = CC(C)Oc1cc(CC[C@H](N[*:1])C(=O)[*:2])cc(Cl)c1Cl; NMePhe(4-CF3) = CN[C@@H](Cc1ccc(C(F)(F)F)cc1)C(=O)O; X98 = O=C([C@H](CCOc1ccc(Cl)c(Cl)c1)N[*:1])[*:2]; 3Oxa8azabicyclo(3.2.1)octane = C1CC2COCC1N2*; NMedβ3hAla = C[C@H](CC(=O)[*:2])N(C)[*:1]; NMeGly(cPent) = CN[C@H](C(=O)O)C1CCCC1; Pro(4,4-F2) = O=C(O)[C@@H]1CC(F)(F)CN1; NMeCha = CN[C@@H](CC1CCCCC1)C(=O)O; NMehLeu = CN[C@@H](CCC(C)C)C(=O)O; NMeAhp(2) = CCCCC[C@H](NC)C(=O)O; NMeChg = CN[C@H](C(=O)O)C1CCCCC1; NMeI = CC[C@H](C)[C@H](NC)C(=O)O; NMeD = CN[C@@H](CC(=O)O)C(=O)O; NMeL = CN[C@@H](CC(C)C)C(=O)O; NMeV = CN[C@H](C(=O)O)C(C)C; d(β3hA) = C[C@@H](N)CC(=O)O; NMeS = CN[C@@H](CO)C(=O)O; NMeA = CN[C@@H](C)C(=O)O; Piperidide = C1CCN(*)CC1; Pyrrolidide = C1CCN(*)C1; Ac5c = NC1(C(=O)O)CCCC1; Aze = O=C(O)[C@@H]1CCN1; Ac4c = NC1(C(=O)O)CCC1; X53 = CC1(C)CCN(*)C1; Sar = CNCC(=O)O; Propyl = CCC*
target: protein-protein interaction between Kras and SOS1 (biotin-tagged human Kras loaded with GDP, His-tagged human SOS1) (Homo sapiens (Human), UniProt P01116, G12D); test: Protein-protein interaction inhibition between Kras and SOS1 (KrasG12D-SOS PPI) using AlphaScreen; format: biochemical; settings: AlphaScreen; biotin-tagged human Kras loaded with GDP, His-tagged human SOS1; read-out: KRAS G12D-SOS PPI IC50;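 further: kras produced in E. coli, Ni-coupled donor beads and streptavidin acceptor beads, excitation 680 nm with emission detected at 520–620 nm via singlet oxygen transfer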

Row | SMILES | IC50 [nM]
1 | CC[C@H](C)[C@@H]1NC(=O)[C@H](CC(C)C)N(C)C(=O)C[C@@H](C(=O)N2CCCC2)N(C)C(=O)[C@H]([C@@H](C)CC)N(C)C(=O)C2(CCCC2)NC(=O)[C@@H]2CCCN2C(=O)[C@H](CCc2ccc(C(F)(F)F)c(F)c2)NC(=O)CN(C)C(=O)[C@H](CC2CCCCC2)N(C)C(=O)[C@@H]2CCN2C(=O)[C@H](C)N(C)C1=O [Compound 868] ([NMeL]I[NMeA][Aze][NMeCha][Sar][hPhe(3-F,4-CF3)]P[Ac5c][NMeI][NMeD]-Pyrrolidide; lactam N-11) | 2.9
2 | CCCCC[C@H]1C(=O)N[C@@H]([C@@H](C)CC)C(=O)N[C@@H](C)C(=O)N2CC[C@H]2C(=O)N(C)[C@@H](COCCC)C(=O)N(C)CC(=O)N[C@@H](CCc2ccc(C(F)(F)F)c(Cl)c2)C(=O)N2CCC[C@H]2C(=O)NC2(CCCC2)C(=O)N(C)[C@@H](C2CCCC2)C(=O)N(C)[C@H](C(=O)N2C3CCC2COC3)CC(=O)N1C [Compound 163] ([NMeAhp(2)]IA[Aze][NMeS](Propyl)[Sar][hPhe(3-Cl-4-CF3)]P[Ac5c][NMeGly(cPent)][NMeD]-{3Oxa8azabicyclo(3.2.1)octane}; lactam N-11) | 6.1
3 | CC[C@H](C)[C@@H]1NC(=O)[C@H](CC(C)C)N(C)C(=O)C[C@@H](C(=O)N2CCC(C)(C)C2)NC(=O)[C@H](C(C)C)N(C)C(=O)C2(CCCC2)NC(=O)[C@@H]2CCCN2C(=O)[C@H](CCc2ccc(C(F)(F)F)c(Cl)c2)NC(=O)CN(C)C(=O)[C@H](CC2CCCCC2)N(C)C(=O)[C@@H]2CCN2C(=O)[C@H](C)N(C)C1=O [Compound 1280] ([NMeL]I[NMeA][Aze][NMeCha][Sar][hPhe(3-Cl-4-CF3)]P[Ac5c][NMeV]D-X53; lactam N-11) | 74
4 | CC[C@H](C)[C@@H]1NC(=O)[C@H](C)N(C)C(=O)C[C@@H](C(=O)N2CCCCC2)N(C)C(=O)[C@H](C(C)C)N(C)C(=O)C2(CCCC2)NC(=O)[C@@H]2CCCN2C(=O)[C@H](CCc2cc(Cl)c(Cl)c(OC(C)C)c2)NC(=O)CN(C)C(=O)[C@H](CC2CCCCC2)N(C)C(=O)CN(C)C(=O)CN(C)C1=O [Compound 2079] ([NMeA]I[Sar][Sar][NMeCha][Sar][X8]P[Ac5c][NMeV][NMeD]-Piperidide; lactam N-11) | 17
5 | CC[C@H](C)[C@@H]1NC(=O)[C@H](C)N(C)C(=O)C[C@@H](C)NC(=O)[C@H](C2CCCC2)N(C)C(=O)C2(CCC2)NC(=O)[C@@H]2CCCN2C(=O)[C@H](CCc2ccc(C(F)(F)F)c(Cl)c2)NC(=O)CN(C)C(=O)[C@H](Cc2ccc(C(F)(F)F)cc2)N(C)C(=O)CN(C)C(=O)CN(C)C1=O [Compound 1486] (cyclo([Ac4c][NMeGly(cPent)][d(β3hA)][NMeA]I[Sar][Sar][NMePhe(4-CF3)][Sar][hPhe(3-Cl-4-CF3)]P)) | 0.5
6 | CC[C@H](C)[C@@H]1NC(=O)[C@H](CC(C)C)N(C)C(=O)C[C@@H](C)N(C)C(=O)[C@H]([C@@H](C)CC)N(C)C(=O)C2(CCC2)NC(=O)[C@@H]2CC(F)(F)CN2C(=O)[C@H](CCc2cc(F)c(C(F)(F)F)c(F)c2)NC(=O)CN(C)C(=O)[C@H](Cc2ccc(C(F)(F)F)cc2)N(CC)C(=O)[C@@H]2CCN2C(=O)[C@H](C)N(C)C1=O [Compound 85] (cyclo([Ac4c][NMeI][NMedβ3hAla][NMeL]I[NMeA][Aze][NEtPhe(4-CF3)][Sar][hPhe(3,5-F2-4-CF3)][Pro(4,4-F2)])) | 15
7 | CC[C@H](C)[C@@H]1NC(=O)[C@H](CCC(C)C)N(C)C(=O)C[C@@H](C(=O)N(C)C)N(C)C(=O)[C@H](C2CCCC2)N(C)C(=O)C2(CCCC2)NC(=O)[C@@H]2CCCN2C(=O)[C@H](CCc2ccc(C(F)(F)F)c(F)c2)NC(=O)CN(C)C(=O)[C@H](CC2CCCCC2)N(C)C(=O)[C@@H]2CCN2C(=O)[C@H](C)NC1=O [Compound 1292] ([NMehLeu]IA[Aze][NMeCha][Sar][hPhe(3-F,4-CF3)]P[Ac5c][NMeGly(cPent)][NMeD]-NMe2; lactam N-11) | 2
8 | CC[C@H](C)[C@@H]1NC(=O)[C@H](C)N(C)C(=O)C[C@@H](C(=O)N2CCCCC2)N(C)C(=O)[C@H](C2CCCCC2)N(C)C(=O)C2(CCCC2)NC(=O)[C@@H]2CCCN2C(=O)[C@H](CCOc2ccc(Cl)c(Cl)c2)NC(=O)CN(C)C(=O)[C@H](CC2CCCCC2)N(C)C(=O)CN(C)C(=O)CN(C)C1=O [Compound 2039, (3S,9S,18S,21S,25S,28S,34S)-28-cyclohexyl-9-(cyclohexylmethyl)-3-[2-(3,4-dichlorophenoxy)ethyl]-7,10,13,16,21,22,26,29-octamethyl-18-[(1S)-1-methylpropyl]-25-(piperidine-1-carbonyl)spiro[1,4,7,10,13,16,19,22,26,29,32-undecazabicyclo[32.3.0]heptatriacontane-31,1′-cyclopentane]-2,5,8,11,14,17,20,23,27,30,33-undecone] ([NMeA]I[Sar][Sar][NMeCha][Sar][X98]P[Ac5c][NMeChg][NMeD]-Piperidide; lactam N-11) | 18

— patent publication US20240148821A1, “PHARMACEUTICAL USE OF CYCLIC PEPTIDE COMPOUND” (CHUGAI SEIYAKU KABUSHIKI KAISHA, priority 2021, published 2024)
